≈ marks a conversion by molar mass, not a printed value. Where “and” joins values, the source holds several entries; their conditions need not be identical. Identical values can stand only once. Like-named read-outs stand apart in the source and are kept apart here.
Experiments:
[1] = test system: WT S. aureus (ATCC 29213, WT); assay: microbe, parasite or virus in culture; assay type: cell-based; conditions: for MIC against S. aureus 29213: ATCC 29213; for MIC: Staphylococcus aureus
[2] = test system: FQR S. aureus (NRS3, FQR); assay: MIC, microdilution broth assay, FQR MRSA NRS3; assay type: cell-based; conditions: for MIC: Staphylococcus aureus
[3] = physchem; conditions: pH 7.4
Description: Three independent replicates of each compound were performed.

[4] = test system: MRSA clinical isolates; assay: microbe, parasite or virus in culture; assay type: cell-based, S. aureus; conditions: Staphylococcus aureus, MRSA, read-out: MIC
Description: MRSA and P. aeruginosa isolates were from Cubist Pharmaceuticals (Lexington, MA). VRE isolates were from a previously published collection. E. coli strains were obtained either from ATCC or Professor Cari Vanderpool (UIUC). A. baumannii isolates were obtained from Dr John Quale[51].
Susceptibility testing was performed in triplicate, using the microdilution broth method as outlined by the Clinical and Laboratory Standards Institute[52]. Mueller Hinton (MH) broth was used.

[5] = Pharmacokinetic assessment; assay type: in vivo, C57BL/6 mice
Description: (§1) The animal studies (PK, in-vivo toxicity and in-vivo efficacy) were carried out in strict accordance with the recommendations in the Guide for the Care and Use of Laboratory Animals of the National Institutes of Health. […] In these studies, 10- to 12-week-old female C57BL/6 mice purchased from Charles River were used. DNM, DNM-2 and DNM-3 were formulated as slurries at 8.3 mg ml^−1 in 25% Cremophor RH40/water (v/v). Before beginning the pharmacokinetic assessment, mice were first tested for their ability to tolerate the DNM, DNM-2 and DNM-3 at 50 mg kg^−1 (p.o.). […] At specified time points, mice were killed and blood was collected, centrifuged and the serum was frozen at −80 °C until analysis. The proteins in a 50-μl aliquot of serum were precipitated by the addition of 50 μl of acetonitrile and the sample was centrifuged to remove the proteins. Serum concentrations of DNM, DNM-2 and DNM-3 were determined by HPLC. PK parameters were determined using GraphPad Prism Version 5.00 for Windows.

[6] = Tolerability in mice (maximal tolerated dose); assay type: in vivo; conditions: increasing doses, highest dose evaluated 50 mg kg^−1 by oral gavage
Description: as §1

[7] = WT GyrA and WT ParC, three independent replicates
[8] = ATCC29213, ATCC 29213, WT GyrA and WT ParC, three independent replicates, read-out: MIC against S. aureus 29213
[9] = NRS3, S84L GyrA and S80F ParC, three independent replicates
[10] = NRS3, S84L GyrA and S80F ParC, three independent replicates, read-out: MIC against S. aureus NRS3
[11] = female, C57BL/6, mouse, in vivo, C57/BL6 mice, 50 mg kg-1 oral gavage, serum

Q: What does the source list for `CCc1cc(=O)n(C)c2c3c4c(cc12)c(C)cc(=O)n4CO3` [compound 4]?
A: MIC against S. aureus 29213 [1, 7]: 8 µg/mL (≈ 27 µM); MIC [1, 8]: 8 µg/mL (≈ 27 µM); MIC against S. aureus NRS3 [2, 9]: 0.25 µg/mL (≈ 0.844 µM); solubility at 1 h [3]: 53 µM (≈ 15.7 µg/mL)

Q: Which results are given for `Cc1cc(=O)n(C)c2c3c4c(cc12)c(C)cc(=O)n4C(C)O3` (stereo not drawn) [compound 5]?
A: MIC against S. aureus 29213 [1, 7]: 4 µg/mL (≈ 13.5 µM); MIC [1, 8]: 4 µg/mL (≈ 13.5 µM)

Q: Which MIC [1, 8] does the source give for `CCCCCCCCCC(=O)N[C@@H](Cc1c[nH]c2ccccc12)C(=O)N[C@H](CC(N)=O)C(=O)N[C@@H](CC(=O)O)C(=O)N[C@@H]1C(=O)NCC(=O)N[C@@H](CCCN)C(=O)N[C@@H](CC(=O)O)C(=O)N[C@H](C)C(=O)N[C@@H](CC(=O)O)C(=O)NCC(=O)N[C@H](CO)C(=O)N[C@@H]([C@H](C)CC(=O)O)C(=O)N[C@@H](CC(=O)c2ccccc2N)C(=O)O[C@@H]1C` [daptomycin, reference compound] here?
A: 2 µg/mL (≈ 1.23 µM)

Q: What about the “MIC against S. aureus NRS3” value [2, 9] of the same compound?
A: 8 µg/mL (≈ 4.94 µM)

Q: What about the MIC [2, 10] of the same compound?
A: 8 µg/mL (≈ 4.94 µM)

Q: Which “MIC against S. aureus 29213” value [1, 7] does the source give for `CCc1cc(=O)n(C)c2c3c4c(cc12)c(CC)cc(=O)n4CO3` [compound 13] here?
A: > 32 µg/mL

Q: And the MIC [1, 8]?
A: > 32 µg/mL

Q: And the “MIC against S. aureus NRS3” value [2, 9]?
A: 16 µg/mL (≈ 51.6 µM)

Q: What about the solubility at 1 h [3] of the same compound?
A: 48 ± 8 µM (≈ 14.9 µg/mL)

Q: For `CCCc1cc(=O)n(C)c2c3c4c(cc12)c(C)cc(=O)n4CO3` [compound 7], which “MIC against S. aureus 29213” value [1, 7] is on record?
A: 16 µg/mL (≈ 51.6 µM)

Q: What about the MIC [1, 8] of the same compound?
A: 16 µg/mL (≈ 51.6 µM)

Q: And the “MIC against S. aureus NRS3” value [2, 9]?
A: 1 µg/mL (≈ 3.22 µM)

Q: What does the source list for `CN[C@H](CC(C)C)C(=O)N[C@H]1C(=O)N[C@@H](CC(N)=O)C(=O)N[C@H]2C(=O)N[C@H]3C(=O)N[C@H](C(=O)N[C@H](C(=O)O)c4cc(O)cc(O)c4-c4cc3ccc4O)[C@H](O)c3ccc(c(Cl)c3)Oc3cc2cc(c3O[C@@H]2O[C@H](CO)[C@@H](O)[C@H](O)[C@H]2O[C@H]2C[C@](C)(N)[C@H](O)[C@H](C)O2)Oc2ccc(cc2Cl)[C@H]1O` [vancomycin, reference compound]?
A: MIC ([1]; ATCC29213, read-out: MIC against S. aureus 29213): 1 µg/mL (≈ 0.69 µM); MIC against S. aureus NRS3 [2, 9]: 8 µg/mL (≈ 5.52 µM); MIC [2, 10]: 8 µg/mL (≈ 5.52 µM); MIC ([4]; strain SAU.1118): 2 µg/mL (≈ 1.38 µM); MIC ([4]; strain SAU.2996): 1 µg/mL (≈ 0.69 µM); MIC ([4]; strain SAU.3017): 1 µg/mL (≈ 0.69 µM); MIC ([4]; strain SAU.3021): 1 µg/mL (≈ 0.69 µM); MIC ([4]; strain SAU.3024): 2 µg/mL (≈ 1.38 µM); MIC ([4]; strain SAU.419): 4 µg/mL (≈ 2.76 µM); MIC ([4]; strain SAU.42): 1 µg/mL (≈ 0.69 µM); MIC ([4]; strain SAU.446): 2 µg/mL (≈ 1.38 µM); MIC ([4]; strain SAU.555): 1 µg/mL (≈ 0.69 µM); MIC ([4]; strain SAU.846): 8 µg/mL (≈ 5.52 µM)

Q: What does the source list for `CCCCCn1c(=O)cc(C)c2cc3c(C)cc(=O)n4c3c(c21)OC4` [compound 9]?
A: MIC against S. aureus 29213 [1, 7]: 32 µg/mL (≈ 94.6 µM); MIC [1, 8]: 32 µg/mL (≈ 94.6 µM); MIC against S. aureus NRS3 [2, 9]: 0.25 µg/mL (≈ 0.739 µM)

Q: Which results are given for `Cc1cc(=O)n2c3c(c4c(cc13)c(C)cc(=O)n4CC(C)C)OC2` [compound 11]?
A: MIC against S. aureus 29213 [1, 7]: > 32 µg/mL; MIC [1, 8]: > 32 µg/mL; MIC against S. aureus NRS3 [2, 9]: 2 µg/mL (≈ 6.17 µM)

Q: For `Cc1cc(=O)[nH]c2c(O)c3c(cc12)c(C)cc(=O)n3C` [compound 1], which MIC [1, 8] is on record?
A: 2 µg/mL (≈ 7.4 µM)

Q: What about the MIC ([2]; NRS3, read-out: MIC against S. aureus NRS3) of the same compound?
A: 4 µg/mL (≈ 14.8 µM)

Q: Which “MIC against S. aureus 29213” value [1, 7] does the source give for `CCCCCCn1c(=O)cc(C)c2cc3c(C)cc(=O)n4c3c(c21)OC4` [compound 10] here?
A: > 64 µg/mL

Q: And the MIC [1, 8]?
A: > 64 µg/mL

Q: What about the “MIC against S. aureus NRS3” value [2, 9] of the same compound?
A: 1 µg/mL (≈ 2.84 µM)

Q: For `CO[C@@H]1[C@@H](OC(N)=O)[C@@H](O)[C@H](Oc2ccc3c(O)c(NC(=O)c4ccc(O)c(CC=C(C)C)c4)c(=O)oc3c2C)OC1(C)C` [Novo, Novobiocin, reference compound], which MIC ([4]; strain SAU.1118) is on record?
A: 0.5 µg/mL (≈ 0.816 µM)

Q: What about the MIC ([4]; strain SAU.3017) of the same compound?
A: 0.5 µg/mL (≈ 0.816 µM)

Q: What about the MIC ([4]; strain SAU.3021) of the same compound?
A: 0.25 µg/mL (≈ 0.408 µM)

Q: And the MIC ([4]; strain SAU.419)?
A: 0.25 µg/mL (≈ 0.408 µM)

Q: What about the MIC ([4]; strain SAU.42) of the same compound?
A: 0.5 µg/mL (≈ 0.816 µM)

Q: And the MIC ([4]; strain SAU.447)?
A: 0.25 µg/mL (≈ 0.408 µM)

Q: And the MIC ([4]; strain SAU.555)?
A: 0.25 µg/mL (≈ 0.408 µM)

Q: And the MIC ([4]; strain SAU.846)?
A: 0.125 µg/mL (≈ 0.204 µM)

Q: With `CCCc1cc(=O)n2c3c(c4c(cc13)c(C)cc(=O)n4C)OC2` [compound 6] as the compound, how does the “MIC against S. aureus 29213” value [1, 7] read?
A: 16 µg/mL (≈ 51.6 µM)

Q: What about the MIC [1, 8] of the same compound?
A: 16 µg/mL (≈ 51.6 µM)

Q: What about the “MIC against S. aureus NRS3” value [2, 9] of the same compound?
A: 0.25 µg/mL (≈ 0.806 µM)

Q: With `Cc1cc(=O)n2c3c(c4c(cc13)c(C)cc(=O)n4CC(C)(C)C)OC2` [compound 12] as the compound, how does the “MIC against S. aureus 29213” value [1, 7] read?
A: 32 µg/mL (≈ 94.6 µM)

Q: What about the MIC [1, 8] of the same compound?
A: 32 µg/mL (≈ 94.6 µM)

Q: What about the “MIC against S. aureus NRS3” value [2, 9] of the same compound?
A: 16 µg/mL (≈ 47.3 µM)

Q: With `CCCCn1c(=O)cc(CCC)c2cc3c(CCC)cc(=O)n4c3c(c21)OC4` [compound 15] as the compound, how does the “MIC against S. aureus 29213” value [1, 7] read?
A: > 32 µg/mL

Q: What about the MIC [1, 8] of the same compound?
A: > 32 µg/mL

Q: And the “MIC against S. aureus NRS3” value [2, 9]?
A: 32 µg/mL (≈ 84.1 µM)

Q: With `CC1(C)S[C@@H]2[C@H](NC(=O)[C@H](N)c3ccccc3)C(=O)N2[C@H]1C(=O)O` [Amp, Ampicillin, reference compound] as the compound, how does the MIC ([4]; strain SAU.1118) read?
A: > 64 µg/mL

Q: And the MIC ([4]; strain SAU.3024)?
A: > 64 µg/mL

Q: What about the MIC ([4]; strain SAU.3025) of the same compound?
A: 64 µg/mL (≈ 183 µM)

Q: What about the MIC ([4]; strain SAU.419) of the same compound?
A: > 64 µg/mL

Q: And the MIC ([4]; strain SAU.42)?
A: 2 µg/mL (≈ 5.72 µM)

Q: What about the MIC ([4]; strain SAU.446) of the same compound?
A: > 64 µg/mL

Q: What about the MIC ([4]; strain SAU.447) of the same compound?
A: > 64 µg/mL

Q: What about the MIC ([4]; strain SAU.555) of the same compound?
A: > 64 µg/mL

Q: Which results are given for `CCc1cc(=O)n2c3c(c4c(cc13)c(C)cc(=O)n4C)OC2` [DNM-3]?
A: MIC against S. aureus 29213 [1, 7]: 8 µg/mL (≈ 27 µM); MIC [1, 8]: 8 µg/mL (≈ 27 µM); MIC against S. aureus NRS3 [2, 9]: 0.12 µg/mL (≈ 0.405 µM); AUC [5, 11]: 4000 ng·h/mL; Tmax [5, 11]: 1.1 h; half-life [5, 11]: 1.2 h; Cmax ([5]; female, C57BL/6, mouse, mice, 50 mg kg^−1 oral dose, serum, read-out: Cmax (peak serum concentration)): 4.3 µM and 1260 ng/mL; oral bioavailability / serum exposure ([5]; mice, 50 mg kg^−1 oral dose): intermediate level of bioavailability; area under the curve ([5]; mice, 50 mg kg^−1 oral dose, serum): 4000 ng·h/mL; tolerability [6]: well tolerated up to the highest dose evaluated; solubility at 1 h [3]: 27 µM (≈ 8 µg/mL)

Q: What does the source list for `CC(=O)NC[C@H]1CN(c2ccc(N3CCOCC3)c(F)c2)C(=O)O1` [linezolid, reference compound]?
A: MIC against S. aureus NRS3 [2, 9]: 0.5 µg/mL (≈ 1.48 µM); MIC [2, 10]: 0.5 µg/mL (≈ 1.48 µM)

Source: article PMC4421842 (Nature Communications, 2015)
